Measurements published in PubChem BioAssay (NCI).
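Step 1: Grow cells in 96-well plates. Step 2: Expose to compound for 48 hours at 5 concentrations. Step 3: Interpolate endpoints linearly; if unreached, use highest concentration. TGI marks complete inhibition of growth.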

System: CAKI-1 renal
Assay: growth of human tumour cells (NCI), 48 h

Structure (SMILES)	TGI [µM]
Clc1ccc(Cl)c(Nc2ccnc(SCc3ccccc3)n2)c1	> 100
CN(C)C1=Nc2ccccc2C(=S)N2CSCC12 (stereo not drawn)	45
O=C(c1ccccc1)c1c(-c2ccccc2)[nH]n(-c2ccc([N+](=O)[O-])cc2)c(=O)c1=O	> 100
C/C(=N\Nc1cc(CN2CCCC2)c(-c2ccc(Cl)cc2)nn1)C(=O)O	> 100
COc1cccc(CCn2c(N)c(-c3ccccc3)c3ccc([N+](=O)[O-])cc3c2=O)c1	16.7

System: A549 NSCLC
Assay: growth of human tumour cells (NCI), 48 h

Structure (SMILES)	TGI [µM]
Nc1nc(Cl)cc(NCCO)n1	> 100
Clc1ccc(Cl)c(Nc2ccnc(SCc3ccccc3)n2)c1	> 100
CN(C)C1=Nc2ccccc2C(=S)N2CSCC12 (stereo not drawn)	> 100
O=C(c1ccccc1)c1c(-c2ccccc2)[nH]n(-c2ccc([N+](=O)[O-])cc2)c(=O)c1=O	> 100
C/C(=N\Nc1cc(CN2CCCC2)c(-c2ccc(Cl)cc2)nn1)C(=O)O	> 100
COc1cccc(CCn2c(N)c(-c3ccccc3)c3ccc([N+](=O)[O-])cc3c2=O)c1	42

System: OVCAR-4 ovarian
Assay: growth of human tumour cells (NCI), 48 h

Structure (SMILES)	TGI [µM]
CCOC(=O)CC1CCN(C(=O)c2ccccc2)C2Cc3c([nH]c4ccccc34)C12C[N+](=O)[O-] (stereo not drawn)	> 100
Nc1nc(Cl)cc(NCCO)n1	> 100
Clc1ccc(Cl)c(Nc2ccnc(SCc3ccccc3)n2)c1	> 100
CN(C)C1=Nc2ccccc2C(=S)N2CSCC12 (stereo not drawn)	> 100
O=C(c1ccccc1)c1c(-c2ccccc2)[nH]n(-c2ccc([N+](=O)[O-])cc2)c(=O)c1=O	> 100
C/C(=N\Nc1cc(CN2CCCC2)c(-c2ccc(Cl)cc2)nn1)C(=O)O	> 100

System: MDA-N
Assay: growth of human tumour cells (NCI), 48 h

Structure (SMILES)	TGI [µM]
CCOC(=O)CC1CCN(C(=O)c2ccccc2)C2Cc3c([nH]c4ccccc34)C12C[N+](=O)[O-] (stereo not drawn)	> 100
Nc1nc(Cl)cc(NCCO)n1	> 100
Clc1ccc(Cl)c(Nc2ccnc(SCc3ccccc3)n2)c1	> 100
CN(C)C1=Nc2ccccc2C(=S)N2CSCC12 (stereo not drawn)	> 100
O=C(c1ccccc1)c1c(-c2ccccc2)[nH]n(-c2ccc([N+](=O)[O-])cc2)c(=O)c1=O	> 100
C/C(=N\Nc1cc(CN2CCCC2)c(-c2ccc(Cl)cc2)nn1)C(=O)O	> 100
COc1cccc(CCn2c(N)c(-c3ccccc3)c3ccc([N+](=O)[O-])cc3c2=O)c1	43.7

System: NCI-H460 lung
Assay: growth of human tumour cells (NCI), 48 h

Structure (SMILES)	TGI [µM]
CCOC(=O)CC1CCN(C(=O)c2ccccc2)C2Cc3c([nH]c4ccccc34)C12C[N+](=O)[O-] (stereo not drawn)	> 100
Nc1nc(Cl)cc(NCCO)n1	> 100
Clc1ccc(Cl)c(Nc2ccnc(SCc3ccccc3)n2)c1	> 100
CN(C)C1=Nc2ccccc2C(=S)N2CSCC12 (stereo not drawn)	> 100
O=C(c1ccccc1)c1c(-c2ccccc2)[nH]n(-c2ccc([N+](=O)[O-])cc2)c(=O)c1=O	> 100
C/C(=N\Nc1cc(CN2CCCC2)c(-c2ccc(Cl)cc2)nn1)C(=O)O	> 100
COc1cccc(CCn2c(N)c(-c3ccccc3)c3ccc([N+](=O)[O-])cc3c2=O)c1	30

System: OVCAR-8 ovarian
Assay: growth of human tumour cells (NCI), 48 h

Structure (SMILES)	TGI [µM]
CCOC(=O)CC1CCN(C(=O)c2ccccc2)C2Cc3c([nH]c4ccccc34)C12C[N+](=O)[O-] (stereo not drawn)	> 100
Nc1nc(Cl)cc(NCCO)n1	> 100
Clc1ccc(Cl)c(Nc2ccnc(SCc3ccccc3)n2)c1	> 100
CN(C)C1=Nc2ccccc2C(=S)N2CSCC12 (stereo not drawn)	> 100
O=C(c1ccccc1)c1c(-c2ccccc2)[nH]n(-c2ccc([N+](=O)[O-])cc2)c(=O)c1=O	> 100
C/C(=N\Nc1cc(CN2CCCC2)c(-c2ccc(Cl)cc2)nn1)C(=O)O	> 100
COc1cccc(CCn2c(N)c(-c3ccccc3)c3ccc([N+](=O)[O-])cc3c2=O)c1	4.45

System: NCI-H226 lung
Assay: growth of human tumour cells (NCI), 48 h

Structure (SMILES)	TGI [µM]
CCOC(=O)CC1CCN(C(=O)c2ccccc2)C2Cc3c([nH]c4ccccc34)C12C[N+](=O)[O-] (stereo not drawn)	> 100
Nc1nc(Cl)cc(NCCO)n1	> 100
CN(C)C1=Nc2ccccc2C(=S)N2CSCC12 (stereo not drawn)	> 100
O=C(c1ccccc1)c1c(-c2ccccc2)[nH]n(-c2ccc([N+](=O)[O-])cc2)c(=O)c1=O	> 100
C/C(=N\Nc1cc(CN2CCCC2)c(-c2ccc(Cl)cc2)nn1)C(=O)O	> 100
COc1cccc(CCn2c(N)c(-c3ccccc3)c3ccc([N+](=O)[O-])cc3c2=O)c1	11.7

System: DU-145 prostate
Assay: growth of human tumour cells (NCI), 48 h

Structure (SMILES)	TGI [µM]
CCOC(=O)CC1CCN(C(=O)c2ccccc2)C2Cc3c([nH]c4ccccc34)C12C[N+](=O)[O-] (stereo not drawn)	> 100
Nc1nc(Cl)cc(NCCO)n1	> 100
Clc1ccc(Cl)c(Nc2ccnc(SCc3ccccc3)n2)c1	> 100
CN(C)C1=Nc2ccccc2C(=S)N2CSCC12 (stereo not drawn)	> 100
O=C(c1ccccc1)c1c(-c2ccccc2)[nH]n(-c2ccc([N+](=O)[O-])cc2)c(=O)c1=O	> 100
C/C(=N\Nc1cc(CN2CCCC2)c(-c2ccc(Cl)cc2)nn1)C(=O)O	> 100
COc1cccc(CCn2c(N)c(-c3ccccc3)c3ccc([N+](=O)[O-])cc3c2=O)c1	31.6

System: BT-549 breast
Assay: growth of human tumour cells (NCI), 48 h

Structure (SMILES)	TGI [µM]
CCOC(=O)CC1CCN(C(=O)c2ccccc2)C2Cc3c([nH]c4ccccc34)C12C[N+](=O)[O-] (stereo not drawn)	> 100
Nc1nc(Cl)cc(NCCO)n1	> 100
Clc1ccc(Cl)c(Nc2ccnc(SCc3ccccc3)n2)c1	> 100
CN(C)C1=Nc2ccccc2C(=S)N2CSCC12 (stereo not drawn)	> 100
O=C(c1ccccc1)c1c(-c2ccccc2)[nH]n(-c2ccc([N+](=O)[O-])cc2)c(=O)c1=O	98.8
C/C(=N\Nc1cc(CN2CCCC2)c(-c2ccc(Cl)cc2)nn1)C(=O)O	> 100
COc1cccc(CCn2c(N)c(-c3ccccc3)c3ccc([N+](=O)[O-])cc3c2=O)c1	4.3

System: COLO 205 colon
Assay: growth of human tumour cells (NCI), 48 h

Structure (SMILES)	TGI [µM]
CCOC(=O)CC1CCN(C(=O)c2ccccc2)C2Cc3c([nH]c4ccccc34)C12C[N+](=O)[O-] (stereo not drawn)	> 100
Nc1nc(Cl)cc(NCCO)n1	> 100
Clc1ccc(Cl)c(Nc2ccnc(SCc3ccccc3)n2)c1	> 100
CN(C)C1=Nc2ccccc2C(=S)N2CSCC12 (stereo not drawn)	52
O=C(c1ccccc1)c1c(-c2ccccc2)[nH]n(-c2ccc([N+](=O)[O-])cc2)c(=O)c1=O	> 100
C/C(=N\Nc1cc(CN2CCCC2)c(-c2ccc(Cl)cc2)nn1)C(=O)O	> 100
COc1cccc(CCn2c(N)c(-c3ccccc3)c3ccc([N+](=O)[O-])cc3c2=O)c1	5.93

System: OVCAR-5 ovarian
Assay: growth of human tumour cells (NCI), 48 h

Structure (SMILES)	TGI [µM]
CCOC(=O)CC1CCN(C(=O)c2ccccc2)C2Cc3c([nH]c4ccccc34)C12C[N+](=O)[O-] (stereo not drawn)	> 100
Nc1nc(Cl)cc(NCCO)n1	> 100
Clc1ccc(Cl)c(Nc2ccnc(SCc3ccccc3)n2)c1	> 100
CN(C)C1=Nc2ccccc2C(=S)N2CSCC12 (stereo not drawn)	> 100
O=C(c1ccccc1)c1c(-c2ccccc2)[nH]n(-c2ccc([N+](=O)[O-])cc2)c(=O)c1=O	> 100
C/C(=N\Nc1cc(CN2CCCC2)c(-c2ccc(Cl)cc2)nn1)C(=O)O	> 100
COc1cccc(CCn2c(N)c(-c3ccccc3)c3ccc([N+](=O)[O-])cc3c2=O)c1	46.9

System: A498 renal
Assay: growth of human tumour cells (NCI), 48 h

Structure (SMILES)	TGI [µM]
CCOC(=O)CC1CCN(C(=O)c2ccccc2)C2Cc3c([nH]c4ccccc34)C12C[N+](=O)[O-] (stereo not drawn)	> 100
Nc1nc(Cl)cc(NCCO)n1	> 100
Clc1ccc(Cl)c(Nc2ccnc(SCc3ccccc3)n2)c1	> 100
CN(C)C1=Nc2ccccc2C(=S)N2CSCC12 (stereo not drawn)	> 100
O=C(c1ccccc1)c1c(-c2ccccc2)[nH]n(-c2ccc([N+](=O)[O-])cc2)c(=O)c1=O	> 100
C/C(=N\Nc1cc(CN2CCCC2)c(-c2ccc(Cl)cc2)nn1)C(=O)O	> 100
COc1cccc(CCn2c(N)c(-c3ccccc3)c3ccc([N+](=O)[O-])cc3c2=O)c1	5.34

System: MDA-MB-231 breast
Assay: growth of human tumour cells (NCI), 48 h

Structure (SMILES)	TGI [µM]
CCOC(=O)CC1CCN(C(=O)c2ccccc2)C2Cc3c([nH]c4ccccc34)C12C[N+](=O)[O-] (stereo not drawn)	> 100
Nc1nc(Cl)cc(NCCO)n1	> 100
Clc1ccc(Cl)c(Nc2ccnc(SCc3ccccc3)n2)c1	> 100
CN(C)C1=Nc2ccccc2C(=S)N2CSCC12 (stereo not drawn)	> 100
O=C(c1ccccc1)c1c(-c2ccccc2)[nH]n(-c2ccc([N+](=O)[O-])cc2)c(=O)c1=O	98.9
C/C(=N\Nc1cc(CN2CCCC2)c(-c2ccc(Cl)cc2)nn1)C(=O)O	> 100
COc1cccc(CCn2c(N)c(-c3ccccc3)c3ccc([N+](=O)[O-])cc3c2=O)c1	29.6

System: SF-539 CNS
Assay: growth of human tumour cells (NCI), 48 h

Structure (SMILES)	TGI [µM]
CCOC(=O)CC1CCN(C(=O)c2ccccc2)C2Cc3c([nH]c4ccccc34)C12C[N+](=O)[O-] (stereo not drawn)	> 100
Nc1nc(Cl)cc(NCCO)n1	> 100
Clc1ccc(Cl)c(Nc2ccnc(SCc3ccccc3)n2)c1	> 100
O=C(c1ccccc1)c1c(-c2ccccc2)[nH]n(-c2ccc([N+](=O)[O-])cc2)c(=O)c1=O	88
C/C(=N\Nc1cc(CN2CCCC2)c(-c2ccc(Cl)cc2)nn1)C(=O)O	> 100
COc1cccc(CCn2c(N)c(-c3ccccc3)c3ccc([N+](=O)[O-])cc3c2=O)c1	6.28

System: SNB-75 CNS
Assay: growth of human tumour cells (NCI), 48 h

Structure (SMILES)	TGI [µM]
CCOC(=O)CC1CCN(C(=O)c2ccccc2)C2Cc3c([nH]c4ccccc34)C12C[N+](=O)[O-] (stereo not drawn)	> 100
Nc1nc(Cl)cc(NCCO)n1	> 100
Clc1ccc(Cl)c(Nc2ccnc(SCc3ccccc3)n2)c1	> 100
CN(C)C1=Nc2ccccc2C(=S)N2CSCC12 (stereo not drawn)	> 100
C/C(=N\Nc1cc(CN2CCCC2)c(-c2ccc(Cl)cc2)nn1)C(=O)O	> 100
COc1cccc(CCn2c(N)c(-c3ccccc3)c3ccc([N+](=O)[O-])cc3c2=O)c1	11.1
